The subject of data set [1] is rat model of ischemic infarct. The settings on record: cited from earlier work.
Data set [2] has as its system diffuse anoxia injury model in rats. The following applies: cited from earlier work; for amount of neuronal injury: diffuse anoxia injury model in rats; for entry into the cerebrospinal fluid (CSF): rats.
Data set [3] relates to fluid percussion model of head trauma. The settings on record: diffuse neuronal injury; cited from earlier work.
Data set [4] concerns rat model of ischemic stroke. Put plainly: Infarct volumes by treatment groups in a rat model of ischemic stroke. Format: in vivo. Details: unit not given here. The following applies: for Infarct volume, Contra, Average / Infarct volume, Infarct, Average: average of 5 animals; for Infarct volume, Contra / Infarct volume, Infarct: individual animals; for Infarct volume, Contralateral / Infarct volume, Ipsilateral: rounded average. The source says: Additional studies using a validated rat model for ischemic stroke have also been conducted. These studies made comparisons in stroke volumes between five different treatment groups: a. Ischemic stroke model in aged rats; no reperfusion; no neuroprotection b. Ischemic stroke model in aged rats; no reperfusion; neuroprotection administered c. Ischemic stroke model in aged rats; reperfusion (tPA) given; no neuroprotection d. Ischemic model in young rats; no reperfusion; no neuroprotection e. Ischemic stroke model in young rats; reperfusion (tPA) given; no neuroprotection

Values joined by “and” are separate entries in the source; they are usually repeats but may differ in a detail not shown here. Identical values can stand only once.

Regarding `[Cl-].[Cl-].[Mg+2]` [MgCl2, magnesium chloride], the “average size of infarcts” value in data set [1] (intraperitoneal injection, rat model of ischemia, reduced from 165 mm^3) was 122 mm^3. Further, in data set [1] (intraperitoneal, 1 mmol/kg immediately after MCA occlusion), the “size of the measured infarct” value was “decreased the size of the measured infarct”. Also, in data set [2], the “amount of neuronal injury” value is on record as “alter the amount of neuronal injury” and the “entry into the cerebrospinal fluid (CSF)” value is recorded as “able to enter the cerebrospinal fluid (CSF)”. Also, the “extent of neuronal injury” value in data set [3] was “limits the extent of neuronal injury”.
`O=S(=O)([O-])[O-].[Mg+2]` [magnesium sulfate]: in data set [2], the “amount of neuronal injury” value is recorded as “alter the amount of neuronal injury” and the “entry into the cerebrospinal fluid (CSF)” value is on record as “able to enter the cerebrospinal fluid (CSF)”.
In the case of tissue plasminogen activator [IPA], the “Infarct volume, Contra, Average” value in data set [4] (aged rats, untreated aged 1.412) was 1.086; in data set [4] (young rats, untreated young 1.028), 1.178. The “Infarct volume, Infarct, Average” value in data set [4] (aged rats, untreated aged 12.918) was determined as 8.868; in data set [4] (young rats, untreated young 8.012) it was 4.208. Also, the “Infarct volume, Contra” value in data set [4] (aged rats) is 1.29 and 0.87 and 0.81 and 1.39 and 1.07; in data set [4] (young rats), 1.07 and 1.28 and 1.66 and 0.52 and 1.36. Also, the “Infarct volume, Infarct” value was 9.58 and 7.26 and 7.85 and 8.95 and 10.7 in data set [4] (aged rats); 3.75 and 4.35 and 3.64 and 4.1 and 5.2 in data set [4] (young rats). Further, the “Infarct volume, Contralateral” value in data set [4] (aged rats, untreated aged 1.4) was found to be 1.1; in data set [4] (young rats, untreated young 1) it was 1.2. The “Infarct volume, Ipsilateral” value came to 8.9 in data set [4] (aged rats, untreated aged 12.9) and 4.2 in data set [4] (young rats, untreated young 8).
